Measured values: patent US10912814B2, “Combination formulation of three antiviral compounds” (priority 2016, dated 2021)

What was measured:
[1] = Tablet dissolution in 50 mM sodium acetate buffer pH 5.0 with 2.0% w/v Polysorbate 80 and 0.001% w/v BHT, 75 rpm, 900 mL, 37° C., USP Type II; type: physicochemical
[2] = BCS classification; type: physicochemical
[3] = test system: HCV RNA; assay: Emax PK/PD modeling of sofosbuvir exposure vs HCV RNA change from baseline; type: in vivo; conditions: 400 mg sofosbuvir dose
Experimental: The sofosbuvir dose selected for the tablet formulation is 400 mg once daily. Support for the 400 mg sofosbuvir dose can be derived from Emax PK/PD modeling with early virological and human exposure data which also supports the selection of a 400 mg sofosbuvir dose over others tested.
The mean sofosbuvir major metabolite AUCtau for the 400 mg sofosbuvir dose is associated with approximately 77% of the maximal HCV RNA change from baseline achievable as determined by this model, a value which is on the cusp of the plateau of the exposure-response sigmoidal curve. In a sigmoidal Emax model, there is a relatively linear exposure-response relationship in the 20 to 80% maximal effect range. Therefore, given that sofosbuvir exposure with 200 mg tablets appears dose-proportional with single doses up to 1200 mg, doses below 400 mg are expected to yield considerable reductions in the magnitude of HCV RNA change from baseline.

## CC(C)OC(=O)C(C)N[P@](=O)(OC[C@H]1O[C@@H](n2ccc(=O)[nH]c2=O)[C@](C)(F)[C@@H]1O)Oc1ccccc1 (stereo in doubt) [Sofosbuvir, (S)-isopropyl 2-(((S)-(((2R,3R,4R,5R)-5-(2,4-dioxo-3,4-dihydropyrimidin-1(2H)-yl)-4-fluoro-3-hydroxy-4-methyltetrahydrofuran-2-yl)methoxy)(phenoxy)phosphoryl)amino)propanoate]
[1]; Batch C tablets, closed 1 g desiccant, 25° C./60% RH, 6 months
  Dissolved at 30 min (%): 99%
[1]; Batch C tablets, closed 1 g desiccant, 30° C./75% RH, 3 months
  Dissolved at 30 min (%): 99%
[1]; Batch C tablets, closed 1 g desiccant, 40° C./75% RH, 3 months
  Dissolved at 30 min (%): 100%
[1]; Batch C tablets, closed 1 g desiccant, 40° C./75% RH, 6 months
  Dissolved at 30 min (%): 99%
[1]; Lot A tablets (super-potent VEL SSD, super-potent VOX SSD), Initial, time 0
  Dissolved at 30 min (%): 100%
[1]; Lot A tablets (super-potent VEL SSD, super-potent VOX SSD), closed, 1 g desiccant, 25° C./60% RH, 12 weeks
  Dissolved at 30 min (%): 99%
[1]; Lot A tablets (super-potent VEL SSD, super-potent VOX SSD), closed, 1 g desiccant, 40° C./75% RH, 12 weeks
  Dissolved at 30 min (%): 100%
[1]; Lot B tablets (sub-potent VEL SSD, sub-potent VOX SSD), Initial, time 0
  Dissolved at 30 min (%): 83%
[1]; Lot B tablets (sub-potent VEL SSD, sub-potent VOX SSD), closed, 1 g desiccant, 25° C./60% RH, 12 weeks
  Dissolved at 30 min (%): 82%
[1]; Lot B tablets (sub-potent VEL SSD, sub-potent VOX SSD), closed, 1 g desiccant, 40° C./75% RH, 4 weeks
  Dissolved at 30 min (%): 85%
[1]; Lot B tablets (sub-potent VEL SSD, sub-potent VOX SSD), closed, 1 g desiccant, 40° C./75% RH, 12 weeks
  Dissolved at 30 min (%): 84%
[1]; Lot B tablets (sub-potent VEL SSD, sub-potent VOX SSD), open, no cap, 40° C./75% RH, 4 weeks
  Dissolved at 30 min (%): 100%
[1]; Lot C tablets (sub-potent VEL SSD, super-potent VOX SSD), Initial, time 0
  Dissolved at 30 min (%): 99%
[1]; Lot C tablets (sub-potent VEL SSD, super-potent VOX SSD), closed, 1 g desiccant, 25° C./60% RH, 12 weeks
  Dissolved at 30 min (%): 98%
[1]; Lot C tablets (sub-potent VEL SSD, super-potent VOX SSD), closed, 1 g desiccant, 40° C./75% RH, 4 weeks
  Dissolved at 30 min (%): 100%
[1]; Lot C tablets (sub-potent VEL SSD, super-potent VOX SSD), closed, 1 g desiccant, 40° C./75% RH, 12 weeks
  Dissolved at 30 min (%): 98%
[1]; Lot C tablets (sub-potent VEL SSD, super-potent VOX SSD), open, no cap, 40° C./75% RH, 4 weeks
  Dissolved at 30 min (%): 99%
[1]; Lot D tablets (super-potent VEL SSD, sub-potent VOX SSD), closed, 1 g desiccant, 25° C./60% RH, 12 weeks
  Dissolved at 30 min (%): 98%
[1]; Lot D tablets (super-potent VEL SSD, sub-potent VOX SSD), closed, 1 g desiccant, 40° C./75% RH, 4 weeks
  Dissolved at 30 min (%): 98%
[1]; Lot D tablets (super-potent VEL SSD, sub-potent VOX SSD), closed, 1 g desiccant, 40° C./75% RH, 12 weeks
  Dissolved at 30 min (%): 98%
[1]; Lot D tablets (super-potent VEL SSD, sub-potent VOX SSD), open, no cap, 40° C./75% RH, 4 weeks
  Dissolved at 30 min (%): 99%
[1]; SSD potency tablets Lot B, after 4 weeks open at 40° C./75% RH
  dissolution at 30 minutes: 100%
[1]; tablet Lots A and B made with different sofosbuvir particle size distributions
  released at 30 minutes: 101%
[1]; tablets Batch A, 25° C./60% RH, 3 mo
  Dissolved at 30 min (%): 98%
[1]; tablets Batch A, 25° C./60% RH, 6 mo
  Dissolved at 30 min (%): 98%
[1]; tablets Batch A, 30° C./75% RH, 3 mo
  Dissolved at 30 min (%): 98%
[1]; tablets Batch A, 40° C./75% RH, 1 mo
  Dissolved at 30 min (%): 98%
[1]; tablets Batch A, 40° C./75% RH, 6 mo
  Dissolved at 30 min (%): 100%
[1]; tablets Batch B, 25° C./60% RH, 3 mo
  Dissolved at 30 min (%): 99%
[1]; tablets Batch B, 25° C./60% RH, 6 mo
  Dissolved at 30 min (%): 99%
[1]; tablets Batch B, 30° C./75% RH, 3 mo
  Dissolved at 30 min (%): 99%
[1]; tablets Batch B, 30° C./75% RH, 6 mo
  Dissolved at 30 min (%): 99%
[1]; tablets Batch B, 40° C./75% RH, 1 mo
  Dissolved at 30 min (%): 100%
[1]; tablets Batch B, 40° C./75% RH, 3 mo
  Dissolved at 30 min (%): 100%
[1]; tablets Batch B, Initial, 0 mo
  Dissolved at 30 min (%): 99%
[1]; tablets Batch D, Initial, 0 mo
  Dissolved at 30 min (%): 100%
[1]; tablets from VEL SSD 7.0% / VOX SSD 3.2% water content, Initial, time 0
  Dissolved at 30 min (%): 100%
[1]; tablets from VEL SSD 7.0% / VOX SSD 3.2% water content, closed, 1 g desiccant, 25° C./60% RH, 12 weeks
  Dissolved at 30 min (%): 98%
[1]; tablets from VEL SSD 7.0% / VOX SSD 3.2% water content, closed, 1 g desiccant, 40° C./75% RH, 12 weeks
  Dissolved at 30 min (%): 99%
[1]; tablets from VEL SSD 7.0% / VOX SSD 3.2% water content, open, no desiccant, 40° C./75% RH, 4 weeks
  Dissolved at 30 min (%): 100%
[1]; tablets from copovidone with 544 ppm (VEL SSD) / 655 ppm (VOX SSD) peroxides, Initial, time 0
  Dissolved at 30 min (%): 99%
[1]; tablets from copovidone with 544 ppm (VEL SSD) / 655 ppm (VOX SSD) peroxides, closed, 1 g desiccant, 25° C./60% RH, 12 weeks
  Dissolved at 30 min (%): 99%
[1]; tablets from copovidone with 544 ppm (VEL SSD) / 655 ppm (VOX SSD) peroxides, closed, 1 g desiccant, 40° C./75% RH, 4 weeks
  Dissolved at 30 min (%): 99%
[1]; tablets from copovidone with 544 ppm (VEL SSD) / 655 ppm (VOX SSD) peroxides, closed, 1 g desiccant, 40° C./75% RH, 12 weeks
  Dissolved at 30 min (%): 99%
[1]; tablets from copovidone with 544 ppm (VEL SSD) / 655 ppm (VOX SSD) peroxides, open, no desiccant, 40° C./75% RH, 4 weeks
  Dissolved at 30 min (%): 100%
[1]; tablets, desiccant study, closed, 1 g desiccant, 40° C./75% RH, 4 weeks
  Dissolved at 30 min (%): 99%
[1]; tablets, desiccant study, closed, 1 g desiccant, 40° C./75% RH, 12 weeks
  Dissolved at 30 min (%): 99%
[1]; tablets, desiccant study, closed, 1 g desiccant, 40° C./75% RH, 24 weeks
  Dissolved at 30 min (%): 100%
[1]; tablets, desiccant study, closed, no desiccant, 25° C./60% RH, 12 weeks
  Dissolved at 30 min (%): 99%
[1]; tablets, desiccant study, closed, no desiccant, 40° C./75% RH, 12 weeks
  Dissolved at 30 min (%): 99%
[2]
  aqueous solubility, pH dependence: high and pH-independent aqueous solubility
[3]
  fraction of the maximal HCV RNA change from baseline achievable (Emax model) associated with mean major metabolite AUCtau: approximately 77%
